The source of these data is patent US8551999B2, “Heterocyclic compound and pharmaceutical composition thereof” (Otsuka Pharmaceutical Co., Ltd., priority 2007, dated 2013).

pIC50: −log10 of the molar value. Structures can show the parent of a compound that is named as a salt.

The subject of series [1] is LI90 cells, a human hepatic stellate cell line. The series is described as follows: Inhibitory effect on collagen synthesis (in vitro). It is filed as cell-based. The conditions noted are these: in the presence of recombinant human TGF-β1, 3H-proline labelled collagen in supernatant. On the procedure: Inhibitory Effect on Collagen Synthesis (In Vitro)
LI90 cells, a human hepatic stellate cell line, were suspended in DMEM (Dulbecco's modified eagle medium) supplemented with 10% inactivated FBS (fetal bovine serum), seeded on a 12-well plate and cultured in a CO2 incubator (preset temperature: 37° C., preset CO2 concentration: 5%). After being cultured for 24 hours, the cells were washed with D-PBS (Dulbecco's phosphate buffered saline), placed in MEM (Eagle's minimum essential medium) supplemented with 0.1% inactivated FBS and then cultured in a CO2 incubator. After being cultured for 3 days, the cells were again washed with D-PBS, placed in MEM (Eagle's minimum essential medium) supplemented with 0.1% inactivated FBS and treated with or without a test compound in the presence of […] recombinant human TGF-β1 (transforming growth factor-β1) in a CO2 incubator for 16 hours. After the incubation, the cells were washed with D-PBS and the medium was replaced with MEM containing 0.25 mM ascorbate. A radio-labeled compound, ^3H-proline, was then added to the culture medium to radio-label the collagen proteins produced. After being cultured for 24 hours, the supernatant was collected and the collagen proteins were extracted from the supernatant as acid-soluble fractions. The amount of collagen produced was determined by measuring the radioactivity contained in the fractions. A concentration of test compound that produced 50% inhibition [IC50 value (nM)] on collagen synthesis was calculated by comparing the radioactivity count in a supernatant of test-compound-treated cells with that of untreated cells (control).

For series [2], the system named is human hepatic cancer cells (HuH-7). The series is described as follows: Antiproliferative effect on cancer cells (in vitro), sulforhodamine B method, HuH-7. It is filed as cell-based. The conditions noted are these: HuH-7 cells, 5 days incubation with test compound. On the procedure: (§1) Growth inhibition of human hepatic cancer cells (HuH-7) was determined by the sulforhodamine B method based on the method of Skehan P. et al. (J Natl Cancer Inst. 1990 Jul. 4; 82(13): 1107-12). In the study, HuH-7 cells were seeded on DMEM medium containing 10% fetal bovine serum in a 96-well microplate. After 24-hour incubation at 37° C. in the presence of 5% carbon dioxide, the test compound was added and the cells were incubated for another 5 days. After incubation, a trichloroacetic acid solution was added to yield the final concentration of 10% and the cells were left to stand at 4° C. for 1 hour to fix. Then, the cells were washed with water to remove the medium and trichloroacetic acid and dried in the air. The dried cells were stored at 4° C. until they were stained with sulforhodamine B. To each well, 1% acetic acid solution containing 0.4% sulforhodamine B was added and left to stand for 20 to 30 minutes at room temperature. After discarding the supernatant, each well was washed with 1% acetic acid solution, and 10 mM Tris ([…]) solution was added while stirring to elute the dye taken into the cells. Then, the optical density was determined at the measurement wavelength of 492 nm and the reference wavelength of 690 nm, and the difference was calculated. The cell growth activity in each well was defined as the value determined by subtracting the OD in the control well not containing cells (the difference in absorbance between 492 nm and 690 nm) from that in the test well.
(§2) The 50% inhibitory concentration (IC50 (nM)) of the test compound was determined by comparing the cell growth activity in the well containing the test compound with that of the control not containing the test compound.
A general note: Sulforhodamine B stains cellular protein and so reports cell mass.

Series [3] deals with human pancreatic cancer cells (HPAC). In words: Antiproliferative effect on cancer cells (in vitro), sulforhodamine B method, HPAC. It is filed as cell-based. The conditions noted are these: 5 days incubation with test compound. As to the method:
as §1, §2
The growth inhibition on human pancreatic cancer cells (HPAC) was also determined by the above method using HPAC instead of HuH-7 and RPMI 1640 medium containing 10% fetal bovine serum instead of the DMEM medium containing 10% fetal bovine serum.

Series [4] concerns human chronic myelocytic leukemia cells (KU812). The series is described as follows: Antiproliferative effect on cancer cells (in vitro), WST-8 assay, KU812. It is filed as cell-based. The conditions noted are these: 5 days incubation with test compound. On the procedure: The growth inhibition on human chronic myelocytic leukemia cells (KU812) was determined by a WST-8 assay according to the method of Singh A K, et al. (Cancer Lett. 1996 Oct. 1; 107(1): 109-15.). In this method, KU812 cells were seeded in RPMI 1640 medium containing 10% fetal bovine serum in a 96-well microplate and incubated at 37° C. for 24 hours in the presence of 5% carbon dioxide. Then, the test compound was added and the cells were incubated for another 5 days. After incubation, 15 μL of 5 mM WST-8 (2-(2-methoxy-4-nitrophenyl)-3-(4-nitrophenyl)-5-(2,4-disulfenyl)-2H-tetrazolium, monosodium salt) was added and the cells were incubated for 2 hours. After the 2-hour incubation, 15 μL of 1% SDS (sodium dodecyl sulfate) was added and the optical density was determined at the measurement wavelength of 450 nm and the reference wavelength of 630 nm, and the difference was calculated. The cell growth activity in each well was defined as the value determined by subtracting the OD in the control well not containing cells (the difference in absorbance between 492 nm and 690 nm) from that in the test well.
as §2

The subject of series [5] is Human hepatic cancer cells (HuH-7). In words: Antitumor effect on hepatic cancer cells, HuH-7 (in vivo). The conditions noted are these: SCID mice bearing HuH-7 tumor, 10 mg/kg/day orally, once daily, 9 consecutive days; ratio of relative tumor volume treatment/control. On the procedure:
Human hepatic cancer cells (HuH-7) were transplanted in SCID mice (6 females/group) and the inhibitory effect of the invention on their growth was examined. In the study, 0.2 mL of a cell suspension adjusted to contain 2.5×10^7 cells/mL was injected subcutaneously in the right axilla to prepare tumor bearing mice. When the tumor diameter became 5 mm or more, the animals were allocated to groups based on the tumor volume. The test compound was administered orally as a suspension in 5% gum arabic, once daily, for 9 consecutive days. The control group received 5% gum arabic. Tumor volumes were measured on the following day of the last administration. The relative tumor volume was determined by calculating the ratio of the tumor volume on the following day of the last administration to that at group allocation. The ratio of the relative tumor volume in the treatment group to that in the control group (T/C %) was calculated as the index for the effect. Relative tumor volume=Tumor volume on the following day of the last administration/Tumor volume at group allocation. T/C %=(Mean relative tumor volume in the treatment group/Mean relative tumor volume in the control group)×100.

Another series has as its system STAT3. In words: Inhibitory effect on IL-6-induced STAT3 phosphorylation in human myeloma cells (in vitro). It is filed as cell-based. The conditions noted are these: U266B1 human myeloma cells, IL-6 1 ng/mL, pSTAT3 (Y705) by flow cytometry. On the procedure: The inhibitory effect of the test compound on phosphorylation of STAT3 (signal transducer and activator of transcription-3) in human myeloma cells ([…]) induced by interleukin-6 (IL-6) was examined using the modified method of Tochizawa S. et al. (J Immunol Methods. 2006 Jun. 30; 313(1-2): 29-37). In the study, U266B1 cells were seeded in an RPMI 1640 medium containing 10% fetal bovine serum (FBS) in a 12-well plate and incubated at 37° C. for 2 hours in the presence of carbon dioxide. After incubation, IL-6 was added to yield the concentration of 1 ng/mL and the cells were incubated at 37° C. for 15 minutes in the presence of 5% carbon dioxide. After fixation of the cells by the addition of a buffer containing formaldehyde (Lyse/Fix Buffer, BD Biosciences) at room temperature for 10 minutes, the suspension was centrifuged to remove the supernatant and the cells were treated with ice-cold methanol for 10 minutes to improve the permeability of the cell membrane. The cells were centrifuged to remove methanol and washed twice with Dulbecco's phosphate buffered saline (D-PBS) containing 2% fetal bovine serum (FBS). A fluorescence-labeled anti-phosphorylated STAT3 (pSTAT3) antibody (Alexa Fluor 488-labeled anti-pSTAT3 (Y705) antibody, BD Biosciences) was added for staining in an ice bath for 30 minutes.
The cells were washed once with 2% FBS-containing D-PBS and suspended in 2% FBS-containing D-PBS, and the fluorescence intensity was determined using a flow cytometer (FACS Sort, BD Biosciences). The ratio of fluorescence intensity in the test group to the control group (T/C) was determined from the difference in the geometric mean of pSTAT3 fluorescence intensity between the test compound group of each concentration and the non-stimulated control group according to the following equation by defining the difference in the geometric mean of pSTAT3 fluorescence intensity between the IL-6 induced control and the non-stimulated control as 100%. T/C(%)=([…] of pSTAT3 fluorescence intensity in the cells treated with the test compound—geometric mean of pSTAT3 fluorescence intensity in non-stimulated control)/(geometric mean of fluorescence intensity of IL-6-induced pSTAT3 in the control−geometric mean of pSTAT3 fluorescence intensity in non-stimulated control)×100.
The concentration of the test compound inhibiting phosphorylation of STATS at 50% (IC50; concentration of the test compound corresponding to 50% T/C(%)) was determined using T/C(%) values at the respective concentrations and defined as the index for the inhibitory activity.

Regarding `CC(C)Oc1ccc(CN2CCN(C(=O)c3cc4cc(Oc5ccc(N(C)C(=O)c6ccc(C(F)(F)F)cc6)cn5)ccc4n3C)CC2)cn1.O=C(O)/C=C\C(=O)O` [Example 424, N-(6-{2-[4-(6-Isopropoxypyridin-3-ylmethyl)piperazine-1-carbonyl]-1-methyl-1H-indol-5-yloxy}pyridin-3-yl)-N-methyl-4-tri-fluoromethylbenzamide maleate], the melting point (in general, the temperature of the solid-liquid transition) lay in the range of 157 to 159 °C. Further, the pIC50 (as a rule, the negative decadic logarithm of the IC50, by convention in mol/L) in series [1] was greater than 8.00. This molecule also gave a pIC50 in series [2] (Homo sapiens, 120 h) greater than 8.00. Also, in series [3] (Homo sapiens, 120 h), the pIC50 was greater than 7.15. The molecule also had a pIC50 in series [4] (Homo sapiens, 120 h) greater than 8.70.
In turn, `Br.CC(C)Oc1ccc(CN2CCN(C(=O)c3cc4ccc(Oc5ccc(NC(=O)c6ccc(C(F)(F)F)cc6Cl)cn5)cc4n3C)CC2)cc1` [Example 253, 2-Chloro-N-(6-{2-[4-(4-isopropoxybenzyl)piperazine-1-carbonyl]-1-methyl-1H-indol-6-yloxy}pyridin-3-yl)-4-trifluoromethylbenzamide hydrobromide] yielded a melting point of 237.2 to 238.2 °C. In addition, the pIC50 in series [1] is greater than 8.00. In series [2] (Homo sapiens, 120 h), this molecule had a pIC50 greater than 8.00. In series [3] (Homo sapiens, 120 h), this molecule gave a pIC50 greater than 7.15. Further, in series [4] (Homo sapiens, 120 h), the pIC50 is greater than 8.70.
`Br.CN(C(=O)c1ccc(C(F)(F)F)cc1)c1ccc(Oc2ccc3cc(C(=O)N4CCN(Cc5ccc(OC(CF)CF)cc5)CC4)n(C)c3c2)nc1` [Example 445, N-[6-(2-{4-[4-(2-Fluoro-1-fluoromethylethoxy)benzyl]piperazine-1-carbonyl}-1-methyl-1H-indol-6-yloxy)pyridin-3-yl]-N-methyl-4-tri-fluoromethylbenzamide hydrobromide]: the melting point is 230.8 to 231.4 °C. In addition, the T/C % in series [5] was less than 50%. The pIC50 in the series with STAT3 was greater than 8.00.
On to `COc1ccc(S(=O)(=O)N(C)c2ccc(Oc3ccc4cc(C(=O)N5CCN(Cc6ccc(OCC(F)(F)F)cc6)CC5)n(C)c4c3)nc2)cc1.Cl` [Example 73, 4-Methoxy-N-methyl-N-[6-(1-methyl-2-{4-[4-(2,2,2-trifluoro-ethoxy)benzyl]piperazine-1-carbonyl}-1H-indol-6-yloxy)pyridin-3-yl]benzenesulfonamide hydrochloride], for which the melting point lay within 213.4 to 214.1 °C. Also, the pIC50 in series [2] (Homo sapiens, 120 h) is greater than 8.00. The pIC50 in series [3] (Homo sapiens, 120 h) is greater than 7.15. In series [4] (Homo sapiens, 120 h), this molecule gave a pIC50 greater than 8.70.
As for `Cc1c(Oc2ccc(N(C)C(=O)c3ccc(C(F)(F)F)cc3)cn2)ccc2c1cc(C(=O)N1CCN(Cc3ccc(C(C)C)cc3)CC1)n2C` [Example 428, N-(6-{2-[4-(4-Isopropylbenzyl)piperazine-1-carbonyl]-1,4-dimethyl-1H-indol-5-yloxy}pyridin-3-yl)-N-methyl-4-trifluoro-methylbenzamide hydrobromide], the pIC50 was greater than 8.00 in series [1], greater than 8.00 in series [2], greater than 7.15 in series [3] and greater than 8.70 in series [4].
With `COc1ccc(CN2CCN(C(=O)c3cc4cc(Oc5ccc(N(C)C(=O)c6ccc(C(F)(F)F)cc6)cn5)ccc4n3C)CC2)cc1` [Example 338, N-(6-{2-[4-(4-Methoxybenzyl)piperazine-1-carbonyl]-1-methyl-1H-indol-5-yloxy}pyridin-3-yl)-N-methyl-4-trifluoromethylbenzamide maleate], the pIC50 in the series with STAT3 is greater than 8.00; in series [2] (Homo sapiens, 120 h), greater than 8.00; in series [3] (Homo sapiens, 120 h), greater than 7.15; in series [4] (Homo sapiens, 120 h), greater than 8.70.
The molecule `Br.CN(C(=O)c1ccc(C(F)(F)F)cc1)c1ccc(Oc2ccc3cc(C(=O)N4CCN(Cc5ccc(OCC(F)(F)F)cc5)CC4)n(C)c3c2)nc1` [Example 436, N-Methyl-N-[6-(1-methyl-2-{4-[4-(2,2,2-trifluoroethoxy)benzyl]-piperazine-1-carbonyl}-1H-indol-6-yloxy)pyridin-3-yl]-4-tri-fluoromethylbenzamide hydrobromide] registered a melting point of 225 to 226.4 °C. The pIC50 in series [1] is greater than 8.00. This molecule also gave a pIC50 with STAT3 greater than 8.00. The same molecule had a pIC50 in series [2] (Homo sapiens, 120 h) greater than 8.00. Moreover, the pIC50 in series [3] (Homo sapiens, 120 h) was greater than 7.15. The same molecule gave a pIC50 in series [4] (Homo sapiens, 120 h) greater than 8.70.
